According to publication PMC6199744, “Development of Chemical Proteomics for the Folateome and Analysis of the Kinetoplastid Folateome” (ACS Infectious Diseases, 2018):
Like-named read-outs stand apart in the source and are kept apart here.

Test system: T. brucei lysate proteins
Assay type: binding, Trypanosoma brucei
Conditions: for abundance relative to vehicle: X016405, bead mixture, free compound 100.0uM, Trypanosoma brucei

In the case of `Nc1nc2cccc(-c3ccccc3)c2n1Cc1ccc(Cl)c(Cl)c1` [compound 3], the “abundance relative to vehicle” value (protein TB427.02.1850) is reported as 0.84, the “abundance relative to vehicle” value (protein TB427.06.4760) is reported as 0.94 and the “abundance relative to vehicle” value (protein TB427.07.3620) is reported as 0.78. For the same compound, the “abundance relative to vehicle” value (protein TB427.08.1880) was 1.20, the “fold change - vehicle control” value (protein RHS6A (CZT00028360.1)) was 0.89 and the “fold change - vehicle control” value (protein TB09.160.1250 HY[…], CONSERVED) was 0.88. For the same compound, the “fold change - vehicle control” value (protein TB09.160.3670 RIBOSOMAL PROTEIN S6, PUTATIVE) was 0.98, the “fold change - vehicle control” value (protein TB09.211.2630 60S RIBOSOMAL PROTEIN L23, PUTATIVE) was 0.92 and the “fold change - vehicle control” value (protein TB09.211.4513 KIN[…] PROTEIN KMP-11) was 1.1. For the same compound, the “fold change - vehicle control” value (protein TB11.V4.0005 RIBONUCLEOSIDE-DIPHOSPHATE REDUCTASE SMALL CHAIN) was 0.81, the “fold change - vehicle control” value (protein TB11.01.0870 R[…] A, 51KDA SUBUNIT, PUTATIVE) was 1.11 and the “fold change - vehicle control” value (protein TB11.01.2560 40S RIBOSOMAL PROTEIN SA, PUTATIVE) was 0.92. The “fold change - vehicle control” value (protein TB11.01.4880 HY[…], CONSERVED) was 0.9, the “fold change - vehicle control” value (protein TB11.01.7090 HY[…], CONSERVED) was 0.87 and the “fold change - vehicle control” value (protein TB11.02.2510 GUANINE NUCLEOTIDE-BINDING BETA SUBUNIT-LIKE PROTEIN) was 0.96. The “fold change - vehicle control” value (protein TB11.02.4170 40S RIBOSOMAL PROTEIN S5, PUTATIVE) was 0.92, the “fold change - vehicle control” value (protein TB11.03.0250 C[…]) was 1.22 and the “fold change - vehicle control” value (protein TB11.46.0009 HY[…], CONSERVED) was 0.89. The “fold change - vehicle control” value (protein TB427TMP.01.0620 HY[…], CONSERVED) was 0.76, the “fold change - vehicle control” value (protein TB427TMP.01.1475 40S RIBOSOMAL PROTEIN S27, PUTATIVE) was 1.02 and the “fold change - vehicle control” value (protein TB427TMP.01.4280 HY[…], CONSERVED) was 0.82. For the same compound, the “fold change - vehicle control” value (protein TB427TMP.01.4650 HY[…], CONSERVED) was 0.97, the “fold change - vehicle control” value (protein TB427TMP.01.4810 HY[…], CONSERVED) was 0.99 and the “fold change - vehicle control” value (protein TB427TMP.01.5680 HY[…], CONSERVED) was 0.54. The “fold change - vehicle control” value (protein TB427TMP.01.8390 HY[…], CONSERVED) was 0.84, the “fold change - vehicle control” value (protein TB427TMP.02.0230 HY[…], CONSERVED) was 1.04 and the “fold change - vehicle control” value (protein TB427TMP.02.0460 NUCLEOPORIN) was 0.82. The “fold change - vehicle control” value (protein TB427TMP.02.1106 NUCLEOBASE/NUCLEOSIDE TRANSPORTER 8 1) was 1.05, the “fold change - vehicle control” value (protein TB427TMP.160.2050 ENDO-BETA-N-ACETYLGLUCOSAMINIDASE, PUTATIVE) was 0.92 and the “fold change - vehicle control” value (protein TB427TMP.160.4310 GLUTAMATE DEHYDROGENASE) was 0.97. For the same compound, the “fold change - vehicle control” value (protein TB427TMP.160.4450 40S RIBOSOMAL PROTEIN S3, PUTATIVE) was 0.97, the “fold change - vehicle control” value (protein TB427TMP.160.4630 HY[…], CONSERVED) was 0.86 and the “fold change - vehicle control” value (protein TB427TMP.160.5200 HY[…], CONSERVED) was 0.69. The “fold change - vehicle control” value (protein TB427TMP.160.5670 HY[…], CONSERVED) was 0.83, the “fold change - vehicle control” value (protein TB427TMP.211.0930 POLYADENYLATE-BINDING PROTEIN 1) was 0.97 and the “fold change - vehicle control” value (protein TB427TMP.211.1750 MIT[…] PROTEIN, PUTATIVE) was 0.88. The “fold change - vehicle control” value (protein TB427TMP.211.3510 ATP-DEPENDENT DEAD/H RNA HELICASE, PUTATIVE) was 1.06, the “fold change - vehicle control” value (protein TB427TMP.211.4540 RNA-BINDING PROTEIN, PUTATIVE) was 1.05 and the “fold change - vehicle control” value (protein TB427TMP.244.2840 HY[…], CONSERVED) was 0.92. The “fold change - vehicle control” value (protein TB427.01.1240 CYTIDINE TR[…], PUTATIVE) was 0.84, the “fold change - vehicle control” value (protein TB427.01.2570 COATOMER BETA SUBUNIT) was 0.73 and the “fold change - vehicle control” value (protein TB427.01.3910 HY[…], CONSERVED) was 0.78. For the same compound, the “fold change - vehicle control” value (protein TB427.02.450 RETRO[…] SPOT (RHS) PROTEIN, PUTATIVE) was 0.81, the “fold change - vehicle control” value (protein TB427.02.6240) was 1.08 and the “fold change - vehicle control” value (protein TB427.04.3350 HY[…], CONSERVED) was 0.72. The “fold change - vehicle control” value (protein TB427.04.3890 ATP-DEPENDENT RNA HELICASE, PUTATIVE) was 0.92, the “fold change - vehicle control” value (protein TB427.04.4870 AMINO ACID TRANSPORTER, PUTATIVE) was 0.87 and the “fold change - vehicle control” value (protein TB427.04.750 50S RIBOSOMAL PROTEIN L7AE, PUTATIVE) was 1.12. The “fold change - vehicle control” value (protein TB427.04.960 HY[…], CONSERVED) was 0.88, the “fold change - vehicle control” value (protein TB427.05.1490 HY[…], CONSERVED) was 0.8 and the “fold change - vehicle control” value (protein TB427.05.1780 HY[…], CONSERVED) was 0.77. For the same compound, the “fold change - vehicle control” value (protein TB427.05.3030 INTR[…] PROTEIN IFT122, PUTATIVE) was 0.89, the “fold change - vehicle control” value (protein TB427.05.4560 GUANINE DEAMINASE, PUTATIVE) was 0.7 and the “fold change - vehicle control” value (protein TB427.06.2150 CELL DIVISION CYCLE PROTEIN 16, PUTATIVE) was 0.83. The “fold change - vehicle control” value (protein TB427.06.3110 PROTEIN KINASE, PUTATIVE (CRK11)) was 0.87, the “fold change - vehicle control” value (protein TB427.06.5110 DAMAGE-SPECIFIC DNA BINDING PROTEIN, PUTATIVE) was 0.98 and the “fold change - vehicle control” value (protein TB427.07.2670 HY[…], CONSERVED) was 3.19. For the same compound, the “fold change - vehicle control” value (protein TB427.07.3040 HY[…], CONSERVED) was 0.98, the “fold change - vehicle control” value (protein TB427.07.3530 HY[…], CONSERVED) was 0.87 and the “fold change - vehicle control” value (protein TB427.07.4970 GLUTAMINE SYNTHETASE, PUTATIVE) was 0.9. For the same compound, the “fold change - vehicle control” value (protein TB427.07.5560 GLUCOSAMINE-FRUCTOSE-6-PHOSPHATE AMINOTRANSFERASE, PUTATIVE) was 0.84, the “fold change - vehicle control” value (protein TB427.07.5890 HY[…], CONSERVED) was 0.79 and the “fold change - vehicle control” value (protein TB427.07.7070 HY[…], CONSERVED) was 0.62. The “fold change - vehicle control” value (protein TB427.07.7460 HY[…], CONSERVED) was 0.91, the “fold change - vehicle control” value (protein TB427.08.1500 HY[…], CONSERVED) was 0.95 and the “fold change - vehicle control” value (protein TB427.08.1840 HY[…], CONSERVED) was 0.95. The “fold change - vehicle control” value (protein TB427.08.1960 HY[…], CONSERVED) was 0.78, the “fold change - vehicle control” value (protein TB427.08.2080 HY[…], CONSERVED) was 1.08 and the “fold change - vehicle control” value (protein TB427.08.3750 NUCLEOLAR PROTEIN, PUTATIVE) was 0.92. The “fold change - vehicle control” value (protein TB427.08.6390 LYSOPHOSPHOLIPASE, PUTATIVE) was 1.03, the “fold change - vehicle control” value (protein TB427.10.10610 PROTEIN TYROSINE PHOSPHATASE, PUTATIVE) was 0.69 and the “fold change - vehicle control” value (protein TB427.10.1100 60S RIBOSOMAL PROTEIN L9, PUTATIVE) was 0.86. The “fold change - vehicle control” value (protein TB427.10.12740) was 0.9, the “fold change - vehicle control” value (protein TB427.10.14660 HY[…], CONSERVED) was 1.05 and the “fold change - vehicle control” value (protein TB427.10.15720 […]-ATP-ASE SUBUNIT 9) was 0.82. The “fold change - vehicle control” value (protein TB427.10.2440 METACASPASE MCA4) was 0.84, the “fold change - vehicle control” value (protein TB427.10.2900 IMPORTIN BETA-1 SUBUNIT, PUTATIVE) was 0.79 and the “fold change - vehicle control” value (protein TB427.10.3470 HY[…], CONSERVED) was 0.74. For the same compound, the “fold change - vehicle control” value (protein TB427.10.4110 60S RIBOSOMAL PROTEIN L30) was 0.91, the “fold change - vehicle control” value (protein TB427.10.4610 […]-MANNOSE SYNTHASE, PUTATIVE) was 0.85 and the “fold change - vehicle control” value (protein TB427.10.5250 HY[…], CONSERVED) was 0.82. For the same compound, the “fold change - vehicle control” value (protein TB427.10.5840 T[…] 1-BETA, PUTATIVE) was 0.65, the “fold change - vehicle control” value (protein TB427.10.7410 SUCCINYL-COA LIGASE GDP-FORMING] BETA-CHAIN, PUTATIVE) was 0.85 and the “fold change - vehicle control” value (protein TB927.10.12960 RAS-RELATED PROTEIN RAB-5) was 0.9. For the same compound, the “fold change - vehicle control” value (protein TB927.10.14800 PROTEIN KINASE, PUTATIVE) was 1.09, the “fold change - vehicle control” value (protein TB927.10.2980 […]-ATPASE SUBUNIT 11) was 1.07 and the “fold change - vehicle control” value (protein TB927.10.3660 ASPARTATE AMINOTRANSFERASE) was 0.86. For the same compound, the “fold change - vehicle control” value (protein TB927.10.4570 […] 2) was 0.66, the “fold change - vehicle control” value (protein TB927.10.5140 PROTEIN KINASE, PUTATIVE) was 1.06 and the “fold change - vehicle control” value (protein TB927.10.560 40S RIBOSOMAL PROTEINS S11, PUTATIVE) was 0.95. For the same compound, the “fold change - vehicle control” value (protein TB927.10.6510 CHAPERONIN HSP60, MIT[…]) was 0.86, the “fold change - vehicle control” value (protein TB927.3.1840 3-OXO-5-ALPHA-STEROID 4-DEHYDROGENASE, PUTATIVE) was 0.92 and the “fold change - vehicle control” value (protein TB927.3.3780 TRYPAREDOXIN) was 0.85. The “fold change - vehicle control” value (protein TB927.3.740 HY[…], CONSERVED) was 0.91, the “fold change - vehicle control” value (protein TB927.4.2740 HY[…], CONSERVED) was 1.05 and the “fold change - vehicle control” value (protein TB927.4.3590 T[…] 1-BETA, PUTATIVE) was 0.69. The “fold change - vehicle control” value (protein TB927.6.4320 HY[…], CONSERVED) was 0.75, the “fold change - vehicle control” value (protein TB927.7.2550 […] SUBUNIT 5) was 0.86 and the “fold change - vehicle control” value (protein TB927.7.2980 HY[…], CONSERVED) was 0.75.
